In PubChem BioAssay (NCI) one finds TGI and GI50 data, which are given here for eleven compounds.

Molecules are shown by their SMILES.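 Compound exposure: 48 hours, 5 concentrations, 96-well plates. Abbreviation: GI50, concentration required for 50% inhibition of growth. Definition used: TGI = concentration required for complete inhibition of growth.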

Some test systems named below: SK-MEL-5 melanoma; SK-OV-3 ovarian; CAKI-1 renal; SF-295 CNS; NCI-H522 lung; LOX IMVI melanoma; EKVX NSCLC; HL-60(TB) leukemia; K-562 leukemia; HCC-2998 colon.
What all share (test): NCI tumour cell line growth inhibition, 48 h

Regarding `Cc1cc(NC(=O)NC(=O)c2ccccc2N)ccc1Oc1ncc(Br)cn1`, the TGI in the test with SK-MEL-5 melanoma is 16.2 µM; with SK-OV-3 ovarian it was 3.02 µM; with CAKI-1 renal it was 63.3 µM; with SF-295 CNS, 17 µM; with NCI-H522 lung, 0.0555 µM; in the test on LOX IMVI melanoma, above 67.1 µM. The TGI is above 84.3 µM with EKVX NSCLC, 1.39 µM with HL-60(TB) leukemia, above 100 µM in the test on K-562 leukemia and 7.77 µM with HCC-2998 colon.

For `Cc1ccc2c(c1C)-c1c(ccc(C)c1C)C(=O)C2=O`, the TGI was 1.29 µM in the test on SK-MEL-5 melanoma; 8.41 µM in the test with SK-OV-3 ovarian; 7.84 µM in the test on CAKI-1 renal; 2.95 µM in the test on SF-295 CNS; 0.403 µM in the test on NCI-H522 lung; 3.76 µM with LOX IMVI melanoma. Moreover, the TGI in the test on EKVX NSCLC was 6.54 µM; in the test with HL-60(TB) leukemia it was 0.702 µM; in the test on K-562 leukemia it was 1.1 µM; with HCC-2998 colon it was 18 µM.

As to `C=C(C)C(=O)OC1CC2=CC(CC3(C)OC3C3OC(=O)C(=C)C13)OC2=O` (stereo not given), the TGI in the test with SK-MEL-5 melanoma was found to be 31 µM; in the test on SK-OV-3 ovarian, 36.8 µM; in the test with CAKI-1 renal, 12.7 µM; in the test with SF-295 CNS, 32.7 µM; with NCI-H522 lung it was 4.18 µM; in the test with LOX IMVI melanoma, 8.99 µM. The TGI came to 30.9 µM in the test with EKVX NSCLC, 9.8 µM in the test with K-562 leukemia and 34.8 µM in the test with HCC-2998 colon. In addition, the GI50 was 0.749 µM in the test on HL-60(TB) leukemia and 2.62 µM in the test with K-562 leukemia.

For the compound `C[C@H]1[C@H](C)CC[C@]2(C(=O)N3CCN(C)CC3)CC[C@]3(C)C(=CC[C@@H]4[C@@]5(C)C/C(=C/c6cccnc6)C(=O)C(C)(C)[C@@H]5CC[C@]43C)[C@H]12`, the GI50 in the test with SK-MEL-5 melanoma is 1.14 µM; with SK-OV-3 ovarian it was 1.71 µM; in the test with CAKI-1 renal, 1.22 µM; in the test with SF-295 CNS, 1.6 µM; with NCI-H522 lung, 0.328 µM; with LOX IMVI melanoma it was 1.41 µM. For the same compound, the GI50 was 1.59 µM in the test on EKVX NSCLC, 0.487 µM with HL-60(TB) leukemia, 1.67 µM in the test with K-562 leukemia and 1.28 µM with HCC-2998 colon. Also, the TGI with SK-MEL-5 melanoma came to 2.54 µM; in the test on SK-OV-3 ovarian, 3.22 µM; in the test on CAKI-1 renal, 2.46 µM; with SF-295 CNS, 3.01 µM; in the test with NCI-H522 lung it was 1.3 µM; in the test on LOX IMVI melanoma, 2.88 µM. Besides, the TGI was 2.99 µM in the test with EKVX NSCLC, 1.86 µM in the test with HL-60(TB) leukemia, above 100 µM in the test with K-562 leukemia and 2.67 µM in the test with HCC-2998 colon.

In the case of `O/N=C/c1cc2c(cc1Br)OCO2`, the TGI with SK-MEL-5 melanoma, in the test with SK-OV-3 ovarian, in the test with CAKI-1 renal, with SF-295 CNS, in the test on NCI-H522 lung and in the test with LOX IMVI melanoma was above 100 µM in each case. Moreover, the TGI with EKVX NSCLC, with HL-60(TB) leukemia, in the test with K-562 leukemia and in the test with HCC-2998 colon was above 100 µM in each case.

Turning to `CN(C)c1ccc(-c2cc(-c3ccc(Nc4nc(Nc5ccccc5)nc(Nc5ccc(Cl)cc5)n4)cc3)nc(N)n2)cc1`, the GI50 was 1.89 µM with SK-MEL-5 melanoma; 18.8 µM with SK-OV-3 ovarian; 1.61 µM in the test with CAKI-1 renal; 2.4 µM in the test with SF-295 CNS; 5.8 µM with NCI-H522 lung; 5.03 µM with LOX IMVI melanoma. In addition, the GI50 is 1.82 µM in the test with EKVX NSCLC, 3.2 µM in the test on HL-60(TB) leukemia, 2.61 µM in the test on K-562 leukemia and 13.7 µM in the test with HCC-2998 colon. Further, the TGI was 11.6 µM in the test on SK-MEL-5 melanoma; above 100 µM in the test with SK-OV-3 ovarian; 7.76 µM in the test with CAKI-1 renal; 16.6 µM with SF-295 CNS; 38.7 µM with NCI-H522 lung; 46.2 µM in the test on LOX IMVI melanoma. The TGI with EKVX NSCLC is above 100 µM; in the test with HL-60(TB) leukemia it was 12.2 µM; with K-562 leukemia, 11.4 µM; with HCC-2998 colon it was 87.9 µM.

As for `CC1CC(c2cccc3c2OCO3)=Nc2ccccc2S1` (stereo not given), the TGI with SK-MEL-5 melanoma, with SK-OV-3 ovarian, in the test on CAKI-1 renal, with SF-295 CNS, with NCI-H522 lung and in the test on LOX IMVI melanoma was above 100 µM in each case. The TGI in the test with EKVX NSCLC, in the test on HL-60(TB) leukemia, in the test on K-562 leukemia and with HCC-2998 colon was above 100 µM throughout.

On to `CC(C)[C@@]12C[C@@H](OC(=O)COC(=O)/C=C/c3ccccc3)[C@@](C)(O1)[C@@H]1CC[C@@H](C)[C@H]1[C@@H]2OC(=O)/C=C/c1ccccc1`, for which the GI50 in the test on SK-MEL-5 melanoma is above 100 µM; in the test on SK-OV-3 ovarian, above 100 µM; with CAKI-1 renal, 0.0813 µM; in the test with SF-295 CNS, above 100 µM; in the test on NCI-H522 lung it was above 100 µM; in the test on LOX IMVI melanoma, above 100 µM. Further, the GI50 is above 100 µM with EKVX NSCLC, above 92.2 µM with HL-60(TB) leukemia, above 78.1 µM in the test on K-562 leukemia and above 100 µM in the test with HCC-2998 colon. In addition, the TGI in the test on SK-MEL-5 melanoma, in the test with SK-OV-3 ovarian, in the test on SF-295 CNS, in the test with NCI-H522 lung, in the test on LOX IMVI melanoma and in the test on EKVX NSCLC was above 100 µM in each case. For the same compound, the TGI in the test on HL-60(TB) leukemia, in the test with K-562 leukemia and in the test on HCC-2998 colon was above 100 µM in each case.

With `O=c1c(Sc2c(O)c3ccccc3c3ccccc3c2=O)c(O)c2ccccc2c2ccccc12`, the TGI is above 100 µM in the test with SK-MEL-5 melanoma; above 100 µM in the test on SK-OV-3 ovarian; above 100 µM with CAKI-1 renal; above 100 µM in the test with SF-295 CNS; 47.8 µM in the test on NCI-H522 lung; 66.5 µM in the test on LOX IMVI melanoma. In addition, the TGI with EKVX NSCLC was above 100 µM; in the test on HL-60(TB) leukemia, 41.8 µM; with K-562 leukemia it was above 100 µM; in the test on HCC-2998 colon, above 100 µM.

Turning to `COc1cc(Cn2c(=S)ss/c2=N\C(=S)N(C)C)cc(OC)c1OC`, the TGI is 56.4 µM in the test with SK-MEL-5 melanoma; above 63.1 µM with SK-OV-3 ovarian; above 100 µM with CAKI-1 renal; 38.5 µM in the test on SF-295 CNS; 15.7 µM with NCI-H522 lung; above 100 µM in the test on LOX IMVI melanoma. For the same compound, the TGI with EKVX NSCLC was above 100 µM; with HL-60(TB) leukemia it was above 61.5 µM; in the test on K-562 leukemia, above 100 µM; in the test with HCC-2998 colon it was above 95.4 µM.

Consider `CN(CC(=O)O)c1ccc(/C=C/c2ccnc3ccccc23)cc1`, for which the TGI in the test on SK-MEL-5 melanoma was 31.7 µM; with SK-OV-3 ovarian, 91.6 µM; with CAKI-1 renal it was 66.1 µM; in the test with SF-295 CNS, 54.5 µM; in the test on NCI-H522 lung, 26.5 µM; with LOX IMVI melanoma, 45.7 µM. Further, the TGI in the test on EKVX NSCLC was 30.8 µM; in the test with HL-60(TB) leukemia it was 48.2 µM; with K-562 leukemia, above 100 µM; with HCC-2998 colon, 53 µM.
